Measurements from patent US7696129B2, “Substituted aromatic amide derivative, intermediate thereof, agrohorticultural insecticide containing thereof and method for the use thereof” (Nihon Nohyaku Co., Ltd., priority 2001, dated 2010).

Tests used:
Assay type in all cases: in vivo
[1] = tested on: Common Cutworm (Spodoptera litura); assay: Test Example 2: insecticidal effect on common cutworm, cabbage leaf immersion; conditions: 50 ppm, cabbage leaf immersed about 30 seconds, second-instar larvae, 25° C., eight days after the inoculation
Text: Insecticidal Effect on Common Cutworm (Spodoptera litura)
A piece of cabbage leaf (cultivar; Shikidori) was immersed for about 30 seconds in a liquid chemical prepared by diluting a preparation containing each compound listed in Tables 4 to 9 as an active ingredient to adjust the concentration to 50 ppm. After air-dryness, it was placed in a plastic Petri dish with a diameter of 9 cm and inoculated with second-instar larvae of common cutworm, after which the dish was closed and then allowed to stand in a room thermostatted at 25° C. Eight days after the inoculation, the dead and alive were counted. The mortality was calculated according to the following equation and the insecticidal effect was judged according to the criterion shown in Test Example 1. The test was carried out with triplicate groups of 10 insects.

[2] = tested on: Smaller Tea Tortrix (Adxophyes sp.); assay: Test Example 3: insecticidal effect on smaller tea tortrix, tea leaf immersion; conditions: 50 ppm, tea leaves immersed about 30 seconds, larvae, 25° C., humidity 70%, eight days after the inoculation
Description: Insecticidal Effect on Smaller Tea Tortrix (Adxophyes sp.)
Tea leaves were immersed for about 30 seconds in a liquid chemical prepared by diluting a preparation containing each compound listed in Tables 1 to 3 as an active ingredient to adjust the concentration to 50 ppm. After air-dryness, the tea leaves were placed in a plastic Petri dish with a diameter of 9 cm and inoculated with larvae of smaller tea tortrix, after which the dish was allowed to stand in a room thermostatted at 25° C. and having a humidity of 70%. Eight days after the inoculation, the dead and alive were counted and the insecticidal effect was judged according to the criterion shown in Test Example 1. The test was carried out with triplicate groups of 10 insects.

[3] = tested on: Diamond Back Moth (Plutella xylostella); assay: Test Example 1: insecticidal effect on diamond back moth, immersion of Chinese cabbage seedling with eggs; conditions: 50 ppm, seedling with eggs immersed about 30 seconds, 25° C., six days after the immersion
Text: Insecticidal Effect on Diamond Back Moth (Plutella xylostella)
Adult diamond back moths were released and allowed to oviposit on a Chinese cabbage seedling. Two days after the release, the seedling having the eggs deposited thereon was immersed for about 30 seconds in a liquid chemical prepared by diluting a preparation containing each compound listed in Tables 4 to 9 as an active ingredient to adjust the concentration to 50 ppm. After air-dryness, it was allowed to stand in a room thermostatted at 25° C. Six days after the immersion, the hatched insects were counted. The mortality was calculated according to the following equation and the insecticidal effect was judged according to the criterion shown below. The test was carried out with triplicate groups of 10 insects.

| Compound | Test Example 2 (insecticidal effect, mortality criterion) [1] | Test Example 3 (insecticidal effect, mortality criterion) [2] | Test Example 1 (insecticidal effect, mortality criterion) [3] |
| --- | --- | --- | --- |
| C[S+]([O-])CC(C)(C)NC(=O)c1c(I)cccc1C(=O)Nc1ccc(C(C(F)(F)F)C(F)(F)F)cc1C#N (stereo not drawn) [5-58] | A (Mortality 100%) | A (Mortality 100%) | A (Mortality 100%) |
| CC(C)(CS(C)(=O)=O)NC(=O)c1c(I)cccc1C(=O)Nc1ccc(C(C(F)(F)F)C(F)(F)F)cc1C#N [5-59] | A (Mortality 100%) | A (Mortality 100%) | A (Mortality 100%) |
| Cc1c(NC(=O)c2cccc(I)c2C(=O)NC(C)C)ccc(C(C(F)(F)F)C(F)(F)F)c1F [5-60] | A (Mortality 100%) | A (Mortality 100%) | A (Mortality 100%) |
| CSCC(C)(C)NC(=O)c1c(I)cccc1C(=O)Nc1ccc(C(C(F)(F)F)C(F)(F)F)c(F)c1C [5-61] | A (Mortality 100%) | A (Mortality 100%) | A (Mortality 100%) |
| Cc1cc(C(C(F)(F)F)C(F)(F)F)c(F)cc1NC(=O)c1cccc(I)c1C(=O)NC(C)C [5-62] | A (Mortality 100%) | A (Mortality 100%) | A (Mortality 100%) |
| CSCC(C)(C)NC(=O)c1c(I)cccc1C(=O)Nc1cc(F)c(C(C(F)(F)F)C(F)(F)F)cc1C [5-63] | A (Mortality 100%) | A (Mortality 100%) | A (Mortality 100%) |
| CSCC(C)(C)NC(=O)c1c(I)cccc1C(=O)Nc1ccc(C(C(F)(F)F)C(F)(F)F)c(Cl)c1C [5-66] | A (Mortality 100%) | A (Mortality 100%) | A (Mortality 100%) |
| Cc1cc(C(C(F)(F)F)C(F)(F)F)cc(C)c1NC(=O)c1cccc(I)c1C(=O)NC(C)C [5-67] | E (Mortality 49% or less) | A (Mortality 100%) | A (Mortality 100%) |
| CSCC(C)(C)NC(=O)c1c(I)cccc1C(=O)Nc1c(C)cc(C(C(F)(F)F)C(F)(F)F)cc1C [5-68] | E (Mortality 49% or less) | E (Mortality 49% or less) | A (Mortality 100%) |
| CSCC(C)(C)NC(=O)c1c(I)cccc1C(=O)Nc1ccc(C(C(F)(F)F)C(F)(F)F)c(OC(C)C)c1 [5-70] | E (Mortality 49% or less) | E (Mortality 49% or less) | A (Mortality 100%) |
| CSCC(C)(C)NC(=O)c1c(I)cccc1C(=O)Nc1ccc(C(C(F)(F)F)C(F)(F)C(F)(F)F)cc1C (stereo not drawn) [5-71] | A (Mortality 100%) | A (Mortality 100%) | A (Mortality 100%) |
| CCN(CC)C(=O)c1c(I)cccc1C(=O)Nc1ccc(C(C(F)(F)F)C(F)(F)F)cc1C [6-1] | A (Mortality 100%) | A (Mortality 100%) | A (Mortality 100%) |
| Cc1cc(C(C(F)(F)F)C(F)(F)F)ccc1N(C)C(=O)c1cccc(I)c1C(=O)NC(C)C [6-2] | E (Mortality 49% or less) | A (Mortality 100%) | A (Mortality 100%) |
| CSCC(C)(C)NC(=O)c1c(I)cccc1C(=O)N(C)c1ccc(C(C(F)(F)F)C(F)(F)F)cc1C [6-3] | A (Mortality 100%) | A (Mortality 100%) | A (Mortality 100%) |
| Cc1cc(C(C(F)(F)F)C(F)(F)F)ccc1NC(=O)c1ncccc1C(=O)NC(C)C [7-1] | E (Mortality 49% or less) | A (Mortality 100%) | A (Mortality 100%) |
| CSCC(C)(C)NC(=O)c1c(I)cccc1C(=O)Nc1ccc(C(C(F)(F)F)C(F)(F)F)nc1 [8-1] | C (Mortality 89-80%) | E (Mortality 49% or less) | A (Mortality 100%) |
| C[S+]([O-])CC(C)(C)NC(=O)c1c(I)cccc1C(=O)Nc1ccc(C(C(F)(F)F)C(F)(F)F)nc1 (stereo not drawn) [8-2] | E (Mortality 49% or less) | E (Mortality 49% or less) | A (Mortality 100%) |
| CC(C)(CS(C)(=O)=O)NC(=O)c1c(I)cccc1C(=O)Nc1ccc(C(C(F)(F)F)C(F)(F)F)nc1 [8-3] | E (Mortality 49% or less) | A (Mortality 100%) | A (Mortality 100%) |
| C[S+]([O-])CC(C)(C)NC(=O)c1c(I)cccc1C(=O)Nc1ccc(C(C(F)(F)F)C(F)(F)F)nc1Cl (stereo not drawn) [8-5] | A (Mortality 100%) | A (Mortality 100%) | A (Mortality 100%) |
| CC(C)(CS(C)(=O)=O)NC(=O)c1c(I)cccc1C(=O)Nc1ccc(C(C(F)(F)F)C(F)(F)F)nc1Cl [8-6] | D (Mortality 79-50%) | A (Mortality 100%) | A (Mortality 100%) |
| CSCC(C)(C)NC(=O)c1c(C(=O)Nc2ccc(C(C(F)(F)F)C(F)(F)F)nc2C)cccc1[N+](=O)[O-] [8-7] | C (Mortality 89-80%) | E (Mortality 49% or less) | A (Mortality 100%) |
| Cc1nc(C(C(F)(F)F)C(F)(F)F)ccc1NC(=O)c1cccc([N+](=O)[O-])c1C(=O)NC(C)(C)C[S+](C)[O-] (stereo not drawn) [8-8] | E (Mortality 49% or less) | E (Mortality 49% or less) | A (Mortality 100%) |
| Cc1nc(C(C(F)(F)F)C(F)(F)F)ccc1NC(=O)c1cccc([N+](=O)[O-])c1C(=O)NC(C)(C)CS(C)(=O)=O [8-9] | D (Mortality 79-50%) | E (Mortality 49% or less) | A (Mortality 100%) |
| Cc1nc(C(C(F)(F)F)C(F)(F)F)ccc1NC(=O)c1cccc(I)c1C(=O)NC(C)C [8-10] | A (Mortality 100%) | A (Mortality 100%) | A (Mortality 100%) |
| CSCC(C)(C)NC(=O)c1c(I)cccc1C(=O)Nc1ccc(C(C(F)(F)F)C(F)(F)F)nc1C [8-11] | A (Mortality 100%) | A (Mortality 100%) | A (Mortality 100%) |
| Cc1nc(C(C(F)(F)F)C(F)(F)F)ccc1NC(=O)c1cccc(I)c1C(=O)NC(C)(C)C[S+](C)[O-] (stereo not drawn) [8-12] | A (Mortality 100%) | A (Mortality 100%) | A (Mortality 100%) |
| Cc1nc(C(C(F)(F)F)C(F)(F)F)ccc1NC(=O)c1cccc(I)c1C(=O)NC(C)(C)CS(C)(=O)=O [8-13] | A (Mortality 100%) | A (Mortality 100%) | A (Mortality 100%) |
| CSCC(C)NC(=O)c1c(I)cccc1C(=O)Nc1ccc(C(C(F)(F)F)C(F)(F)F)nc1C (stereo not drawn) [8-14] | A (Mortality 100%) | A (Mortality 100%) | A (Mortality 100%) |
| CCNC(=O)OCC(C)NC(=O)c1c(I)cccc1C(=O)Nc1ccc(C(C(F)(F)F)C(F)(F)F)nc1C (stereo not drawn) [8-26] | D (Mortality 79-50%) | A (Mortality 100%) | A (Mortality 100%) |
